# Measured values from patent EP2329817A1, “Retinoic acid receptor antagonists, miR-10a inhibitors and inhibitors of HOXB1 or HOXB3 repressors for treating pancreatic cancer” (Ernst-Moritz-Arndt-Universität Greifswald, priority 2009, dated 2011).
# “And” between values parts separate entries of the source, which are not always exact repeats. Equal values may be shown once.
# Test system: PaTu-T cells
# Experiment: Zebrafish embryo xenotransplantation: invasion and metastatic behaviour of pretreated PaTu-T cells
# Type: in vivo, human
# Method: Zebrafish (Danio rerio) (Tuebingen line, AIB strain (Albinos) and Tg (fli1:eGFP) were handled in compliance with local animal care regulations and standard protocols of the Netherlands and Germany. Fish were kept at 28°C in aquaria with day/night light cycles (10 h dark versus 14 h light periods). The developing embryos were kept in an incubator at constant temperatures.
# The selective RARα antagonist Ro-41-5253 was purchased from Biomol International, dissolved in DMSO and cells were treated overnight prior to injections at a final concentration of 200 nM (50% inhibition at 60nM)^14,15. Retinoic acid (ATRA, Sigma) was added to cells ON at a final concentration of 1 µM.
# Cells were stained with CM-Dil (red fluorescence) at a 1:1000 dilution according to the manufacturers protocol (Vybrant, Invitrogen). Cells were suspended in 67% DPBS for injection into embryos. 2dpf zebrafish embryos were dechorionated and tranquilized with tricaine (Sigma). An injection needle (15µm diameter) with a manual injector (Eppendorf; Celltram Vario) was used to inject ∼200 cells into the yolk sac of 2dpf zebrafish embryos. On average 80 embryos were injected for each treatment and embryos with detectable cell scatter 2 h after the transfer (and therefore presumably due to the transfer procedure) were excluded from further analysis. Presence of cells was checked after 2 h incubation at 31°C and embryos were subsequently kept at 35°C. We defined metastasis based on the number of fluorescent cells that were detected outside the yolk sac 2 days after the transfer. Presence of 5 or more cells was considered "metastasised" and percentages of metastasised fish in each experiment were counted. The occurence of micro-metastasis is indicated by cell clusters of ≥4 cells presumably originating from cell division. PaTu-S cells and ASPC1 cells were transfected ON with indicated concentrations of miR-10a siRNA in the presence of ICA-Fectin TM442 (Eurogentec, Belgium). Whole cell lysates were prepared 36h post-transfection and 40 µg of total lysates were separated on 7.5% PAA-gels and blotted with anti E-cadherin, α-catenin, β-catenin (all mAbs, Transduction Labs) and actin antibodies (mAb Sigma-Aldrich, Germany).
# Morpholino antisense oligonucleotides were obtained from Gene Tools, LLC (OR, USA) and used as previously described^19. The miR-10a antisense Morpholino sequence is: […]. Standard control Morpholino was […]. Both miR-10a and control Morpholinos were fluorescein labeled. The siRNAs for human HOXB1, human HOXB3 and human RARα were purchased from Santa Cruz Biotechnology (HOXB1: sc-38686, HOXB3: sc-38690 and RARα: sc-29465). EndoPorter (Gene Tools, LLC) was used to deliver Morpholinos and siRNAs into cells and efficiencies for Morpholinos were checked by fluorescence microscopy to be >98%. For the miR-10a siRNA, the sense strand corresponds to […]. The sequence of control siRNA (miR-196a) was […] with the corresponding antisense sequence). 30 µl of each siRNA oligo (50 µM) were annealed by gradually cooling from 98°C to 20°C in a volume of 75 µl annealing buffer (50 mM Tris, pH 7.8, 100 mM NaCl RNAse free). The effect of miR-10a Morpholinos on miR-10a function was tested with a sensor construct: pCS2+ EGFP 4x miR-10 AS containing 4 copies of a miR-10a antisense sequence.
# [1] = Experiment 1, Day 1, number of embryos
# [2] = Experiment 1, Day 2, number of embryos
# [3] = Experiment 1, Day 3, number of embryos
# [4] = Experiment 2, Day 1, number of embryos
# [5] = Experiment 2, Day 2, number of embryos
# [6] = Experiment 2, Day 3, number of embryos
smiles,measurement,setting,value
"CCCCCCCOc1cc2c(cc1/C(C)=C/c1ccc(C(=O)O)cc1)C(C)(C)CCS2(=O)=O [Ro-41-5253, Benzoic acid, 4-(2-(7-(heptyloxy)-3,4-dihydro-4,4-dimethyl-2H-1-benzothiopyran-6-yl)-1-propenyl)-, S,S-dioxide, (E)]",total >5,"Experiment 1, number of embryos (equals the Day 1 total)",1
same,Migration 5 to 20,[1],1
same,Migration <5,[1],0
same,Migration >20,[1],0
same,total >5,[1],1
same,Migration 5 to 20,[2],0
same,Migration <5,[2],0
same,Migration >20,[2],0
same,total >5,[2],0
same,Migration 5 to 20,[3],0
same,Migration <5,[3],0
same,Migration >20,[3],0
same,total >5,[3],0
same,total >5,"Experiment 1, summary line, percentage in brackets (of embryos alive)",1.4%
same,total >5,"Experiment 2, number of embryos (equals the Day 1 total)",2
same,Migration 5 to 20,[4],2
same,Migration <5,[4],0
same,Migration >20,[4],0
same,total >5,[4],2
same,Migration 5 to 20,[5],2
same,Migration <5,[5],0
same,Migration >20,[5],0
same,total >5,[5],2
same,Migration 5 to 20,[6],0
same,Migration <5,[6],0
same,Migration >20,[6],0
same,total >5,[6],0
same,total >5,"Experiment 2, summary line, percentage in brackets (of embryos alive)",2.9%
same,Average % (observed metastasised embryos),"Table 1, pretreated PaTu-T cells transplanted into zebrafish embryos, average of 2-4 experiments",2.2%
same,"%migration, Average","average of experiments, PaTu-T",2.2%
same,%migration,"single experiments, PaTu-T, listed as RARαinhibitor",1.4% and 2.9%
